Laboratory results as given in ChEMBL document CHEMBL5390296, “N-Biphenyl Pyrrolinones and Dibenzofurans as RNA-Binding Protein LIN28 Inhibitors Disrupting the LIN28-Let-7 Interaction” (ACS Med Chem Lett, 2023).
pIC50: −log10 of the molar value. Activity calls are given as the source filed them. The rule behind the calls is not given here.

Experiments:
[1] = Inhibition of LIN28A (16 to 187 residues) (unknown origin) expressed in Escherichia coli BL21(DE3)/mouse let-7 interaction at 75 uM incubated for 15 mins in presence of Cy-3-fluorophore labeled RNA by electrophoretic mobility shift assay relative to control
[2] = Inhibition of LIN28A (16 to 187 residues) (unknown origin) expressed in Escherichia coli BL21(DE3)/mouse let-7 interaction incubated for 15 mins in presence of Cy-3-fluorophore labeled RNA by electrophoretic mobility shift assay
[3] = target: T1, Protein lin-28 homolog A (Homo sapiens) (UniProt Q9H9Z2); assay: Binding affinity to recombinant LIN28A CSD (16 to 126 residues) (unknown origin) by biolayer interferometry analysis; conditions: dose 1.56-100 µM
T1 sequence (whole entry): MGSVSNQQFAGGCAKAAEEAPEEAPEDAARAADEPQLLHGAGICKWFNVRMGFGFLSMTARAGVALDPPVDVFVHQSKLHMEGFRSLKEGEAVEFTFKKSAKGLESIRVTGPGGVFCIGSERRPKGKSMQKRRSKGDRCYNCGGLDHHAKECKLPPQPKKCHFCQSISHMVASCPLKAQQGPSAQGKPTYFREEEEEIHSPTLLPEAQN

[4] = system: JAR; assay: Inhibition of let-7d miRNA biogenesis in human JAR cells incubated for 24 hrs by qPCR analysis; format: functional, cell-based; conditions: dose 5-20 µM
[5] = system: let-7i miRNA; assay: Inhibition of let-7i miRNA biogenesis in human JAR cells incubated for 24 hrs by qPCR analysis; format: functional, cell-based; conditions: dose 5-20 µM
[6] = species on record: Homo sapiens; assay: Inhibition of LIN28B (24 to 111 residues) (unknown origin) expressed in Escherichia coli BL21(DE3)/mouse let-7 interaction incubated for 15 mins in presence of Cy-3-fluorophore labeled RNA by electrophoretic mobility shift assay; conditions: dose 2.3-150 µM
[7] = Inhibition of let-7d miRNA biogenesis in human JAR cells assessed as fold increase in mature […] at 5 to 20 uM incubated for 24 hrs by qPCR analysis; format: functional; conditions: dose 5-20 µM
[8] = system: let-7i miRNA; assay: Inhibition of let-7i miRNA biogenesis in human JAR cells assessed as fold increase in mature […] at 5 to 20 uM incubated for 24 hrs by qPCR analysis; format: functional, cell-based; conditions: dose 5-20 µM
[9] = target: T1, Protein lin-28 homolog A (Homo sapiens); assay: Inhibition of recombinant LIN28A CSD (16 to 126 residues) (unknown origin) assessed as increase in thermal stability at 75 uM incubated for 45 mins by nano differential scanning fluorimetry analysis

Row | SMILES | inhibition [1] | also measured
1 | COc1ccc(C(=O)C2=C(O)C(=O)N(c3cccc(-c4ccccc4)c3)C2c2ccc([N+](=O)[O-])cc2)cc1OC (centres undefined) | inactive | 
2 | O=C(O)c1cc(N2C(=O)C(O)=C(Cc3ccccc3)[C@@H]2c2ccc([N+](=O)[O-])cc2)ccc1O | inactive | 
3 | O=C(O)c1cc(N2C(=O)C(O)=C(c3nccs3)C2c2ccc([N+](=O)[O-])cc2)ccc1O (centres undefined) | 64.8% | 
4 | CS(=O)(=O)c1ccc(C(=O)C2=C(O)C(=O)N(c3cccc(-c4ccccc4)c3)C2c2ccc([N+](=O)[O-])cc2)cc1 (centres undefined) | inactive | 
5 | Cc1ccc(C(=O)C2=C(O)C(=O)N(c3ccc(O)c(C(=O)O)c3)C2c2ccc([N+](=O)[O-])cc2)cc1 (centres undefined) | 65.6% | 
6 | Nc1ccc(C2C(C(=O)c3ccccc3)=C(O)C(=O)N2c2ccc(O)c(C(=O)O)c2)cc1 (centres undefined) |  | pIC50 [2]: 5.30
7 | O=C(C1=C(O)C(=O)N(c2cccc(-c3ccccc3)c2)[C@@H]1c1ccc([N+](=O)[O-])cc1)c1ccccc1 |  | pIC50 [2]: 4.43
8 | O=C(C1=C(O)C(=O)N(c2cccc(-c3ccccc3)c2)C1c1ccc([N+](=O)[O-])cc1)c1ccc(F)cc1O (centres undefined) | inactive | 
9 | O=C(C1=C(O)C(=O)N(CCCc2ccccc2)C1c1ccc([N+](=O)[O-])cc1)c1ccccc1 (centres undefined) |  | pIC50 [2]: 5.30
10 | O=C(O)c1cc(N2C(=O)C(O)=C(Cc3ccccc3)[C@H]2c2ccc([N+](=O)[O-])cc2)ccc1O | inactive | 
11 | O=C(C1=C(O)C(=O)N(c2ccc(O)c(C(=O)O)c2)[C@H]1c1ccc([N+](=O)[O-])cc1)c1ccc(Cl)cc1 | inactive | 
12 | N=C1CC=CC=C1C1=C(N)C(=O)N(c2ccc(O)c(C(=O)O)c2)[C@@H]1c1ccc([N+](=O)[O-])cc1 | inactive | 
13 | O=C(C1=C(O)C(=O)N(c2ccc(O)c(C(=O)O)c2)[C@@H]1c1ccc([N+](=O)[O-])cc1)c1ccc(Cl)cc1 | inactive | 
14 | NC1=C(C(=O)c2ccccc2)[C@@H](c2ccc([N+](=O)[O-])cc2)N(c2ccc(O)c(C(=O)O)c2)C1=O | inactive | 
15 | Cn1nnc2cc(C3C(C(=O)c4ccccc4)=C(O)C(=O)N3c3ccc(O)c(C(=O)O)c3)ccc21 (centres undefined) |  | ΔTm [9]: < 0.5 °C
16 | O=C(C1=C(O)C(=O)N(c2ccc(O)c(C(=O)O)c2)C1c1ccc([N+](=O)[O-])cc1)c1ccccn1 (centres undefined) | 106% | 

The next lines start with results.

Row | inhibition [1] | SMILES | also measured
17 | inactive | O=C(O)c1cc(N2C(=O)c3nn(Cc4ccccc4)c(-c4ccccc4)c3C2c2ccc([N+](=O)[O-])cc2)ccc1O (centres undefined) | 
18 | 84% | O=C(C1=C(O)C(=O)N(c2cccc(-c3ccccc3)c2)C1c1ccc([N+](=O)[O-])cc1)c1ccccc1 (racemic) | Activity [3]: Dose-Dependent Effect; Activity [4]: Dose-Dependent Effect; Activity [5]: Dose-Dependent Effect; inhibition [6]: Dose-Dependent Effect; fold change (FC) [7]: 2; fold change (FC) [8]: 2
19 | inactive | O=C1C(=O)C2(CCCC2=O)C(c2ccccc2)N1c1ccccc1 (centres undefined) | 
20 | inactive | O=C1C(=O)C2(CCCC2=O)C(c2ccc([N+](=O)[O-])cc2)N1c1cccc(-c2ccccc2)c1 (centres undefined) | 
21 | inactive | O=C1C(=O)C2(CCCC2=O)C(c2ccc([N+](=O)[O-])cc2)N1c1ccc2c(c1)oc1ccccc12 (centres undefined) | 
22 | inactive | O=C(C1=C(O)C(=O)N(c2cccc([N+](=O)[O-])c2)[C@H]1c1ccc([N+](=O)[O-])cc1)c1ccccc1 | 
23 | inactive | O=C(O)c1cc(N2C(=O)c3c(c(-c4ccccc4)nn3Cc3ccccc3)C2c2ccc([N+](=O)[O-])cc2)ccc1O (centres undefined) | 
24 | inactive | O=C(C1=C(O)C(=O)N(c2cccc(-c3ccccc3)c2)C1c1ccc([N+](=O)[O-])cc1)C1CC1 (centres undefined) | 
25 | inactive | O=C1C(=O)C2(CCCCC2=O)C(c2ccc([N+](=O)[O-])cc2)N1c1cccc(-c2ccccc2)c1 (centres undefined) | 
26 | inactive | O=C1C(=O)C2(CCCCC2=O)C(c2ccccc2)N1c1ccccc1 (centres undefined) | 
27 | inactive | O=C(C1=C(O)C(=O)N(c2cccc([N+](=O)[O-])c2)[C@@H]1c1ccc([N+](=O)[O-])cc1)c1ccccc1 | 
28 | inactive | O=C1C(=O)C2(CCCC2=O)C(c2ccc([N+](=O)[O-])cc2)N1c1ccc2oc3ccccc3c2c1 (centres undefined) | 
